Consider 3 compounds from patent US10787430B2, “Hemoglobin modifier compounds and uses thereof” (FronThera U.S. Pharmaceuticals LLC, priority 2016, dated 2020).

Data set [1] is described as follows: Pharmacokinetic study in rats (plasma and red blood cell). The format is in vivo. The note with it: male, Sprague-Dawley, rat, oral, 7.2 mg/kg. Here is the method: Rats (Sprague-Dawley, male, 220-280 g) were dosed with GBT-440 (HCl salt) and one of three compounds corresponding to Example 27, 29, and 38. The rats received oral (7.2 mpk) doses of the compound. Rats were fasted overnight before the experiments and provided with food four hours after dosing. The oral dosing formulations was prepared as follows: approximately 10 mg of compound was weighed precisely to an appropriate size of container, to which was added 2 mL of vehicle 0.5% methylcellulose in water and 8 μL 0.5% sodium dodecyl sulfate. The mixture was then transferred into a glass vial, and volume adjusted to appropriate volume with 0.5% methylcellulose to obtain a final concentration of 0.72 mg·mL^−1, and then vortexed and sonicated briefly.
Whole blood sample collection: Blood samples ([…]) were collected at pre-dose, 15, 30 min, 1, 2, 4, 8, 12 and 24 h via jugular vein into tubes and anticoagulated with 3.2% TSC (trisodium citrate). The proportion of anticoagulant and blood was 1:9 (v/v). The sampling time was recorded accordingly. The tubes were gently inverted several times to ensure mixing. Then 10 μL doses of whole blood sample was transferred to a new EP tube and duplicated in wet ice.
Plasma sample collection: The remaining whole blood was processed by centrifugation at 5,500 rpm for 10 min. The supernate was collected. All these whole blood and plasma samples were kept below −20° C. for 1 h prior to analysis.
Plasma sample preparation: An aliquot of 20 μL of sample was transferred to sample treatment tube (1.5 mL EP tube), and then 100 μL ACN (0.5% FA) containing Verapamil, 5 ng·mL^−1 and Glibenclamide, 50 ng·mL^−1 for protein precipitation was added. The mixture was vortexed for 30 min, and then centrifuged at 13000 rpm for 5 min at room temperature. After that, 70 μL of supernatant was transferred to a 96-Well Plate, to which 70 μL of water added and then vortexed for 10 min at room temperature. An aliquot of 10 μL of this mixture was analyzied using LC-MS/MS.
Whole blood sample preparation: An aliquot of 10 μL of sample was transferred to sample treatment tube (1.5 mL EP tube), and then 500 μL ACN (0.5% FA) containing Verapamil, 5 ng·mL^−1 and Glibenclamide, 50 ng·mL^−1 for protein precipitation was added. The mixture was vortexed for 30 min, and then centrifuged at 13000 rpm for 5 min at room temperature. After that, 70 μL of supernatant was transferred to a 96-Well Plate, to which 70 μL of water was added and then vortexed for 10 min at room temperature. An aliquot of 10 μL of this mixture was analyzed using LC-MS/MS.
Plasma and red blood cell concentration-time data were processed by linear regression analysis. All pharmacokinetic parameters were calculated using non-compartment model of Pharsight Phoenix 6.3.
Red blood cell concentrations were calculated according to the method below: Mass balance equation: Cb·VB=Cp·Vp+CBC·VBC Where, Cb=Concentration of whole blood; VB=Volume of whole blood; Cp=Concentration of plasma; Vp=Volume of plasma; CBC=Concentration of blood cell; VBC=Volume of blood cell. VBC=H·VB, where H is the hematocrit number. Vp=(1−H)·VB

The nature of data set [2]: Solubility in JP1, JP2 and FaSSIF buffers. In kind it is physicochemical. The note with it: 25 °C, thermodynamic from solid, room temperature. The procedure: Conditions: 1. JP1 buffer (84 mM HCl, 34.22 mM NaCl, pH 1.2); 2. JP2 buffer (50 mM phosphate buffer at pH 6.8); 3. FaSSIF buffer, pH 6.5 (Preparation: In about 0.9 L of purified water dissolve 0.420 g of NaOH (pellets), 4.470 g of NaH2PO4 (dihydrate), 6.186 g of NaCl; Adjust the pH to 6.5 with Sodium hydroxide 1N or Hydrochloric acid 1N, to make up to volume (1 L) with purified water at room temperature; Add 0.224 g of SIF Powder Original to about 0.5 L of pH 6.5 blank buffer and stir until powder is completely dissolved; Let stand for 2 hour. FaSSIF buffer is now ready to use.
Procedures: 1. accurately weighed about 2 mg test compounds and controls in whatman vials, then transferred 450 μL buffer in to the vials; 2. Filter pistons of miniuniprep vials were placed and compressed to the position of the liquid level to allow for contact. Vortexed for 2 minutes; 3. […] Miniunipreps were compressed to prepare the filtrates for injection into HPLC system; 5. Diluted the filtrates with buffer by a factor of 50 fold to make diluents; 6. Determined the test compound concentration of the diluents and filtrates using HPLC-UV.

Setting [3] is: red blood cells, red blood cell (calculated by mass balance from whole blood and plasma), read-out: AUC0-24 h RBC.
The mark [4] stands for this setting: red blood cells, red blood cell (calculated by mass balance from whole blood and plasma), read-out: Cmax RBC.
The mark [5] stands for this setting: red blood cells, red blood cell, read-out: T1/2 RBC (converted).
Setting [6] is: plasma, read-out: AUC0-24 h Plasma.
[7] abbreviates: plasma, read-out: T1/2 Plasma (converted).
The mark [8] stands for this setting: aqueous buffer, JP2 buffer (50 mM phosphate) pH 6.8, 24 hr, read-out: JP2 Solubility.
Setting [9] is: simulated gastric fluid, JP1 buffer pH 1.2, 24 hr, read-out: JP1 Solubility.
[10] abbreviates: FaSSIF buffer pH 6.5, 24 hr, read-out: FaSSIF Solubility.

Where a name gives a salt, the structure may show the parent alone. Read-outs that look alike come from different tables or passages of the source. A value given as a limit tells only on which side of the number the result lay.

Broadly, the Cmax is the maximum level reached in the sampled fluid or tissue. Usually solubility stands for how much of the substance goes into solution per volume. Take `Cl.[2H]C([2H])(Oc1cc(F)cc(O)c1C=O)c1cccnc1-c1ccnn1C(C)C` [Example 27, 4-fluoro-2-hydroxy-6-((2-(1-isopropyl-1H-pyrazol-5-yl)pyridin-3-yl)methoxy-d2)benzaldehyde hydrochloric acid]: the figures for the AUC(0-t) in data set [1] (setting [3]) and in data set [1] (setting [6]) were 566 µg·h/mL and 10.7 µg·h/mL, respectively. The maximum concentration (Cmax) in data set [1] (setting [4]) was 50.3 µg/mL; in data set [1] (plasma, read-out: Cmax Plasma) it was 0.742 µg/mL. Moreover, the figures for the half-life in data set [1] (setting [5]) and in data set [1] (setting [7]) were 26 h and 18 h, respectively. Besides, the solubility at 24 h was 8.16 µg/mL in data set [2] (setting [8]), 623 µg/mL in data set [2] (setting [9]) and 35.7 µg/mL in data set [2] (setting [10]).

In the case of `Cl.[2H]C([2H])(Oc1cccc(O)c1C=O)c1cccnc1-n1ccnc1C(C)C` [Example 29, 2-hydroxy-6-((2-(2-isopropyl-1H-imidazol-1-yl)pyridin-3-yl)methoxy-d2)benzaldehyde hydrochloric acid], the AUC(0-t) in data set [1] (setting [3]) was 12000 µg·h/mL; in data set [1] (setting [6]), 42.6 µg·h/mL. Moreover, the Cmax in data set [1] (setting [4]) was 1240 µg/mL; in data set [1] (plasma, read-out: Cmax Plasma), 4.01 µg/mL. Besides, the values for the half-life in data set [1] (setting [5]) and in data set [1] (setting [7]) were 10 h and 12 h, respectively. For the same compound, the figures for the solubility at 24 h in data set [2] (setting [8]), in data set [2] (setting [9]) and in data set [2] (setting [10]) were 74.4 µg/mL, greater than 4440 µg/mL and 591 µg/mL, respectively.

Turning to `CC(C)n1nccc1-c1ncccc1COc1cccc(O)c1C=O` [GBT-440 (HCl salt), reference compound], the AUC(0-t) was 3440 µg·h/mL in data set [1] (setting [3]) and 22.8 µg·h/mL in data set [1] (setting [6]). Besides, the Cmax in data set [1] (setting [4]) was 216 µg/mL; in data set [1] (plasma, read-out: Cmax Plasma) it was 2.15 µg/mL. Also, the half-life in data set [1] (setting [5]) was 17 h; in data set [1] (setting [7]), 19 h. Also, the solubility at 24 h in data set [2] (setting [8]) was 28 µg/mL; in data set [2] (setting [9]) it was 986 µg/mL; in data set [2] (setting [10]) it was 95.7 µg/mL.
